Measurements from US10351522B2, “Sulfonamide derivative and pharmaceutically acceptable acid addition salt thereof” (UNIVERSITY OF TSUKUBA, priority 2015, dated 2019).
Like-named read-outs stand apart in the source and are kept apart here.

Legend:
[1] = biological target: T1, human OX1R (Homo sapiens, UniProt O43613); experiment: Agonist activity against OX1R: intracellular calcium (Fura-2AM, FDSS7000) in CHOOX1R cells; type: cell-based; conditions: for Emax at 0.1 µM / Emax at 1 µM / Emax at 10 µM: read-out: Response (%) OX1R
T1 construct: expressed in transfected cells; host or cells: CHO (Chinese hamster ovary) cells, line CHOOX1R, co-expressing NFAT-luciferase
T1 sequence (O43613 1-425): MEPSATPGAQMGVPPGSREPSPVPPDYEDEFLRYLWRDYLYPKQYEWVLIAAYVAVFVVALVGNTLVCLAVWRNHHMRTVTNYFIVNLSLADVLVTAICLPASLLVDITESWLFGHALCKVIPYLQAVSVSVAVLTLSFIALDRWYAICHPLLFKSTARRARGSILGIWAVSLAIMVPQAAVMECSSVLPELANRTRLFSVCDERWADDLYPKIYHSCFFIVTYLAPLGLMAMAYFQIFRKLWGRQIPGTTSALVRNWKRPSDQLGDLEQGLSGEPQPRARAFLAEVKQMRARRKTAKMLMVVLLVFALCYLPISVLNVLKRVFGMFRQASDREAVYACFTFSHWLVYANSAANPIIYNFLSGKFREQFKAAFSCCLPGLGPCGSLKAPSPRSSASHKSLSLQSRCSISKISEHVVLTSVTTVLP
Outline: (§1)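 Response is agonist activity at 0.1, 1.0 or 10 μM compound as a percentage of the orexin-A full-agonist maximum, taken from 340/380 nm Fura-2 ratio changes. Each cell line is CHO constitutively expressing human OX1R or OX2R with NFAT-luciferase, dye-loaded 60 min with 5 μM Fura-2AM; compound range 10^−7–10^−5 M, 1% DMSO.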

[2] = biological target: T2, human OX2R (Homo sapiens, UniProt O43614); experiment: Agonist activity against OX2R: intracellular calcium (Fura-2AM, FDSS7000) in CHOOX2R cells; type: cell-based; conditions: relative to orexin-A as full agonist (100%)
T2 construct: expressed in transfected cells; host or cells: CHO (Chinese hamster ovary) cells, line CHOOX2R, co-expressing NFAT-luciferase
T2 sequence (O43614 1-444): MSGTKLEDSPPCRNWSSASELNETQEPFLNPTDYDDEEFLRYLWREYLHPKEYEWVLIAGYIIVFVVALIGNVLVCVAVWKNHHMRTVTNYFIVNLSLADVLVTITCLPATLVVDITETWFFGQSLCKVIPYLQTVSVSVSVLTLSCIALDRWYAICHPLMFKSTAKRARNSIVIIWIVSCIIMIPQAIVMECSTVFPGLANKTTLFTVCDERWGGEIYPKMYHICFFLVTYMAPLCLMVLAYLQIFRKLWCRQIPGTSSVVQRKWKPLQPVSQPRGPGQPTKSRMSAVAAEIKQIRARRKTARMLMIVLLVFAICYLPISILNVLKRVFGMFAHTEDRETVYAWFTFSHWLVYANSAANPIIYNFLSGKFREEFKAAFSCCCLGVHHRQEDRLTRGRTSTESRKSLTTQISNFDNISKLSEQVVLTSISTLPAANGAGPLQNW
Outline: as §1

[3] = test compound 0.1 μM, relative to orexin-A as full agonist (100%)
[4] = test compound 1.0 μM, relative to orexin-A as full agonist (100%)
[5] = test compound 10 μM, relative to orexin-A as full agonist (100%)
[6] = 0.1 μM test compound, relative to orexin-A as full agonist (100%)
[7] = 1.0 μM test compound, relative to orexin-A as full agonist (100%)
[8] = 10 μM test compound, relative to orexin-A as full agonist (100%)

Row | Response (%) OX2R ([2]; test compound 0.1 μM) [%] | Response (%) OX2R ([2]; test compound 1.0 μM) [%] | Response (%) OX2R ([2]; test compound 10 μM) [%] | Response (%) OX1R [1, 6] [%] | Response (%) OX1R [1, 7] [%] | Response (%) OX1R [1, 8] [%] | Response (%) OX2R ([2]; 0.1 μM test compound) [%] | Response (%) OX2R ([2]; 1.0 μM test compound) [%] | Response (%) OX2R ([2]; 10 μM test compound) [%] | SMILES | further results
1 | <5 | 16 | 44 | – | – | – | – | – | – | Cc1ccc(-c2cccc(C(=O)N(C)C)c2)cc1S(=O)(=O)Nc1cccc(NC(=O)Nc2cccc(N(C)C)c2)c1 [Example 117] | Response (%) OX1R [1, 3]: <5%; Response (%) OX1R [1, 4]: <5%; Response (%) OX1R [1, 5]: <5%
2 | 94 | 66 | 64 | – | – | – | – | – | – | COc1ccc(-c2cccc(C(=O)N(C)C)c2)cc1S(=O)(=O)Nc1cccc(N2CCCN(c3ccc(N(C)C)cc3)C2=O)c1 [Example 135] | Response (%) OX1R [1, 3]: 8%; Response (%) OX1R [1, 4]: 14%; Response (%) OX1R [1, 5]: 83%
3 | <5 | <5 | 67 | – | – | – | – | – | – | COc1ccc(-c2cccc(C(=O)N(C)C)c2)cc1S(=O)(=O)Nc1cccc(N(C)C)c1 [Example 96, 3′-(N-(3-(dimethylamino)phenyl)sulfamoyl)-4′-methoxy-N,N-dimethyl-[1,1′-biphenyl]-3-carboxamide] | Emax at 0.1 µM [1, 3]: < 5%; Emax at 1 µM [1, 4]: < 5%; Emax at 10 µM [1, 5]: < 5%
4 | – | – | – | <5 | <5 | 15 | <5 | 6 | 44 | COc1ccccc1C(=O)Nc1cccc(NS(=O)(=O)c2cc(-c3cccc(C(=O)N(C)C)c3)ccc2OC)c1 [Example 18] | –
5 | – | – | – | <5 | <6 | <7 | 43 | 81 | 78 | COc1ccccc1NC(=O)Nc1cccc(NS(=O)(=O)c2cc(-c3cccc(C(=O)N(C)C)c3)ccc2OC)c1 [Example 52] | –
6 | – | – | – | <5 | <5 | <5 | 93 | 109 | 95 | COc1ccc(-c2cccc(C(=O)N(C)C)c2)cc1S(=O)(=O)Nc1cccc(NC(=O)Nc2ccc(Br)cc2)c1 [Example 42] | –
7 | <5 | 10 | 56 | – | – | – | – | – | – | COc1ccc(-c2cccc(C(=O)N(C)C)c2)cc1S(=O)(=O)Nc1cccc(NS(=O)(=O)N(C)C)c1 [Example 87] | Response (%) OX1R [1, 3]: <5%; Response (%) OX1R [1, 4]: <5%; Response (%) OX1R [1, 5]: <5%
8 | <5 | 8 | 62 | – | – | – | – | – | – | CN(C)C(=O)c1cccc(-c2ccc(O)c(S(=O)(=O)Nc3cccc(NC(=O)Nc4cccc(N(C)C)c4)c3)c2)c1 [Example 115] | Response (%) OX1R [1, 3]: <5%; Response (%) OX1R [1, 4]: <5%; Response (%) OX1R [1, 5]: <5%
9 | – | – | – | <5 | <5 | 32 | 73 | 59 | 53 | COc1ccc(-c2cccc(C(=O)N(C)C)c2)cc1S(=O)(=O)Nc1cccc(NC(=O)Nc2ccc(N(C)C)cc2)c1 [Example 39] | –
10 | – | – | – | 6 | <5 | 10 | 106 | 97 | 113 | COc1ccc(-c2cccc(C(=O)N(C)C)c2)cc1S(=O)(=O)Nc1cccc(NC(=O)Nc2ccc(N(C)C)nc2)c1 [Example 71] | –
11 | 6 | 6 | 24 | – | – | – | – | – | – | COc1ccc(C(=O)NCc2ccccc2)cc1S(=O)(=O)Nc1cccc(NC(=O)Nc2ccc(N(C)C)cc2)c1 [Example 108, N-benzyl-3-(N-(3-(3-(4-(dimethylamino)phenyl)ureido)phenyl)sulfamoyl)-4-methoxybenzamide] | Emax at 0.1 µM [1, 3]: < 5%; Emax at 1 µM [1, 4]: < 5%; Emax at 10 µM [1, 5]: < 5%
12 | – | – | – | 9 | 8 | 13 | 6 | 7 | 9 | COc1ccc(-c2cccc(C(=O)N(C)C)c2)cc1S(=O)(=O)Nc1cccc(NC(=O)Nc2cccc(NC(=O)OC(C)(C)C)c2)c1 [Example 62] | –
13 | <5 | <5 | 35 | – | – | – | – | – | – | COc1ccc(-c2cccc(C(=O)N(C)C)c2)cc1S(=O)(=O)Nc1cccc(N(CCNC(=O)OC(C)(C)C)Cc2ccccc2)c1 [Example 91, tert-butyl (2-((benzyl)(3-(3′-(dimethylcarbamoyl)-4-methoxy-[1,1′-biphenyl]-3-ylsulfonamido)phenyl)amino)ethyl)carbamate] | Emax at 0.1 µM [1, 3]: < 5%; Emax at 1 µM [1, 4]: < 5%; Emax at 10 µM [1, 5]: < 5%
14 | – | – | – | 5 | 6 | 5 | <5 | 41 | 47 | COc1ccc(-c2cccc(C(=O)N(C)C)c2)cc1S(=O)(=O)Nc1cccc(NC(=O)c2ccc3ccccc3c2)c1 [Example 9] | –
15 | <5 | <5 | 16 | – | – | – | – | – | – | COc1cccc(Nc2c(Nc3cccc(NS(=O)(=O)c4cc(-c5cccc(C(=O)N(C)C)c5)ccc4OC)c3)c(=O)c2=O)c1 [Example 82] | Response (%) OX1R [1, 3]: <5%; Response (%) OX1R [1, 4]: <5%; Response (%) OX1R [1, 5]: 7%
16 | – | – | – | <5 | <5 | 13 | <5 | 9 | 41 | COc1ccc(-c2cccc(C(=O)N(C)C)c2)cc1S(=O)(=O)Nc1cccc(NC(=O)c2ccc(C)cc2)c1 [Example 17] | –
17 | – | – | – | <5 | <5 | <5 | <5 | <5 | 31 | COc1ccc(-c2cccc(C(=O)N(C)C)c2)cc1S(=O)(=O)Nc1cccc(NC(=O)Nc2ccc(NC(=N)N)cc2)c1 [Example 60] | –
18 | – | – | – | <5 | <5 | 9 | <5 | 51 | 101 | COc1ccc(-c2cccc(C(=O)N(C)C)c2)cc1S(=O)(=O)Nc1cccc(NCc2ccccc2O)c1 [Example 26] | –
19 | – | – | – | <5 | <5 | <5 | 26 | 89 | 92 | COc1ccc(-c2cccc(C(=O)N(C)C)c2)cc1S(=O)(=O)Nc1cccc(NC(=O)Nc2cccc(C(=O)N(C)C)c2)c1 [Example 49] | –
20 | – | – | – | 6 | 8 | 27 | 8 | 10 | 24 | COc1ccc(-c2cccc(C(=O)N(C)C)c2)cc1S(=O)(=O)Nc1cccc(NC(=O)c2cccc(N(C)C)c2)c1 [Example 7] | –
21 | – | – | – | 6 | 6 | <5 | 25 | 49 | 11 | COc1ccc(-c2cccc(C(=O)N(C)C)c2)cc1S(=O)(=O)Nc1cccc(NC(=O)OCc2ccccc2)c1 [Example 73] | –

Row | SMILES | Response (%) OX2R ([2]; test compound 0.1 μM) [%] | Response (%) OX2R ([2]; test compound 1.0 μM) [%] | Response (%) OX2R ([2]; test compound 10 μM) [%] | Response (%) OX1R [1, 6] [%] | Response (%) OX1R [1, 7] [%] | Response (%) OX1R [1, 8] [%] | Response (%) OX2R ([2]; 0.1 μM test compound) [%] | Response (%) OX2R ([2]; 1.0 μM test compound) [%] | Response (%) OX2R ([2]; 10 μM test compound) [%] | further results
22 | COc1ccc(-c2cccc(C(=O)N(C)C)c2)cc1S(=O)(=O)Nc1cccc(N(C)C(=O)Nc2cccc(N(C)C)c2)c1 [Example 125, 3′-(N-(3-(3-(3-(dimethylamino)phenyl)-1-methylureido)phenyl)sulfamoyl)-4′-methoxy-N,N-dimethyl-[1,1′-biphenyl]-3-carboxamide] | 42 | 78 | 79 | – | – | – | – | – | – | Emax at 0.1 µM [1]: < 5%; Emax at 1 µM [1]: < 5%; Emax at 10 µM [1]: < 5%
